Source: EP4745135A1 (Gluetacs Therapeutics (Shanghai) Co., Ltd., priority 2023, dated 2025)

Key:
CK1α = target: T1, CK1α (Homo sapiens, UniProt P48729+Q96SW2); test: Western blot, degradation of substrate protein in hPBMCs; format: cell-based
T1 construct: effects of the compounds of the present disclosure on the expression of target proteins in cells; endogenous in cells; host or cells: human PBMCs (Milecell Biotechnologies)

IKZF1 = target: T2, IKZF1 (Homo sapiens, UniProt Q13422+Q96SW2); test: as above; format: cell-based
T2 construct: effects of the compounds of the present disclosure on the expression of target proteins in cells; endogenous in cells; host or cells: human PBMCs (Milecell Biotechnologies)

IKZF2 = target: T3, IKZF2 (Homo sapiens, UniProt Q96SW2+Q9UKS7); test: as above; format: cell-based
T3 construct: effects of the compounds of the present disclosure on the expression of target proteins in cells; endogenous in cells; host or cells: human PBMCs (Milecell Biotechnologies)

IKZF3 = target: T4, IKZF3 (Homo sapiens, UniProt Q96SW2+Q9UKT9); test: as above; format: cell-based
T4 construct: effects of the compounds of the present disclosure on the expression of target proteins in cells; endogenous in cells; host or cells: human PBMCs (Milecell Biotechnologies)

WEE1 = target: T5, WEE1 (Homo sapiens, UniProt P30291+Q96SW2); test: as above; format: cell-based
T5 construct: effects of the compounds of the present disclosure on the expression of target proteins in cells; endogenous in cells; host or cells: human PBMCs (Milecell Biotechnologies)

GSPT1 = test: as above; format: cell-based, Human
[1] = target: T6, human Cereblon WT GST-tagged protein (Homo sapiens, UniProt Q96SW2); test: CRBN-binding affinity, HTRF (CEREBLON BINDING kit); conditions: for inhibition at 0.5 µM: read-out: Inhibition Rate at 0.5 µM (%); for inhibition at 2 µM: read-out: Inhibition Rate at 2 µM (%)
T6 construct: purchased CISBIO 64BDCRBNPEH

[2] = Western blot, 24 hours of compound treatment, compounds tested at 50 nM and 500 nM (concentration for the table not stated)
[3] = 24 hours treatment, compounds at 50 nM and 500 nM (concentration behind the class not stated)

T1 sequence (P48729 whole entry): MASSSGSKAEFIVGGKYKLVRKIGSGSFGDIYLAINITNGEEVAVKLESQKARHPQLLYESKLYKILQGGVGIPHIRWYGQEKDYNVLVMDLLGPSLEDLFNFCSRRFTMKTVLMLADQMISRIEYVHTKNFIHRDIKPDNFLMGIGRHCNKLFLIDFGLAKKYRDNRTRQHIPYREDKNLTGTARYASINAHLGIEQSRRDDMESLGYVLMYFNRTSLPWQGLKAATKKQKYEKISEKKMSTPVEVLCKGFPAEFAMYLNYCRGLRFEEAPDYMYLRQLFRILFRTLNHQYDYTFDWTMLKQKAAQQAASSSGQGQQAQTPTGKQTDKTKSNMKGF
T1 sequence (Q96SW2 whole entry): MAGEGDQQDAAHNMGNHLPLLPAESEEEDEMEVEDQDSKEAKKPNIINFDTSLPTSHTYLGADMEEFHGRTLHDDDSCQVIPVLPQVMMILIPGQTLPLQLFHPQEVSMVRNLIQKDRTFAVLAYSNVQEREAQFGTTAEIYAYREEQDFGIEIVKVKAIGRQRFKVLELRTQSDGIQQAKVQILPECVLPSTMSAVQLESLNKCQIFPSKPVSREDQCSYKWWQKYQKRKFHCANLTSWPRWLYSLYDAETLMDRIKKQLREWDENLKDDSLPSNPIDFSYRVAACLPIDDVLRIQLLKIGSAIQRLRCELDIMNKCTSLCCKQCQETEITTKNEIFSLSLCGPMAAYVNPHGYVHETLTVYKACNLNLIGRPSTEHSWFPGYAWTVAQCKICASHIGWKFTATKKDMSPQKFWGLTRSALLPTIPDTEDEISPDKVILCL
T1 sequence (Q16531 whole entry partner): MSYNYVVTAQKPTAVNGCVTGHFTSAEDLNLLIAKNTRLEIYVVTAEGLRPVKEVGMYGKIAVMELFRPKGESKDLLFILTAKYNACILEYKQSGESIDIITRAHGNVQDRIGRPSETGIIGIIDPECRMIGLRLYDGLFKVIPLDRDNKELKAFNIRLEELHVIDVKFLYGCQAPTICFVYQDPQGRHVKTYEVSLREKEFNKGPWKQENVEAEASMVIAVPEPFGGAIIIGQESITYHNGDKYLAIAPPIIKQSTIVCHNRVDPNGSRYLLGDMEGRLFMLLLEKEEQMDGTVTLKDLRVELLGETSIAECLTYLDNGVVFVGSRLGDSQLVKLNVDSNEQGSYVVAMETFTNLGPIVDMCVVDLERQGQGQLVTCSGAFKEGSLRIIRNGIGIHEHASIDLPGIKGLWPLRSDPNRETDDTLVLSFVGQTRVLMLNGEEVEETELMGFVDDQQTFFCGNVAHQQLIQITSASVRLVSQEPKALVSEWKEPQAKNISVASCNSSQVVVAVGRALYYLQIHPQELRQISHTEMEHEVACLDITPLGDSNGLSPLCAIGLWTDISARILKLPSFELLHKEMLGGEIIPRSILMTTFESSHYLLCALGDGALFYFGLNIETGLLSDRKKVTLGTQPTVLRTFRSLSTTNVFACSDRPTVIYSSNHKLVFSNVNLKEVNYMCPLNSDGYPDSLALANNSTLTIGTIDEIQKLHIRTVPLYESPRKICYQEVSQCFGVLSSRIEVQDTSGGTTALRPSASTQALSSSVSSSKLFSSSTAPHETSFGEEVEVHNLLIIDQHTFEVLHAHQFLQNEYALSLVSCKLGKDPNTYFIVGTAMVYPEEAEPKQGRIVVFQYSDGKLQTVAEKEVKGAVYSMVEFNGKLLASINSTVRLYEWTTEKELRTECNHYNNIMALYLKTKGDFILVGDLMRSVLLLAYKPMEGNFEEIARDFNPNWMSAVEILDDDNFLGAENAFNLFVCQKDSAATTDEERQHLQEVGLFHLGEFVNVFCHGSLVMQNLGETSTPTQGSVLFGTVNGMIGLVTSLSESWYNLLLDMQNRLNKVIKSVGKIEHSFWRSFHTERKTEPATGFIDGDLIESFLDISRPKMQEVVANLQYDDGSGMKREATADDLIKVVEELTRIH
T6 sequence (Q96SW2 whole entry): as the sequence (Q96SW2 whole entry) above
T2 sequence (Q13422 whole entry): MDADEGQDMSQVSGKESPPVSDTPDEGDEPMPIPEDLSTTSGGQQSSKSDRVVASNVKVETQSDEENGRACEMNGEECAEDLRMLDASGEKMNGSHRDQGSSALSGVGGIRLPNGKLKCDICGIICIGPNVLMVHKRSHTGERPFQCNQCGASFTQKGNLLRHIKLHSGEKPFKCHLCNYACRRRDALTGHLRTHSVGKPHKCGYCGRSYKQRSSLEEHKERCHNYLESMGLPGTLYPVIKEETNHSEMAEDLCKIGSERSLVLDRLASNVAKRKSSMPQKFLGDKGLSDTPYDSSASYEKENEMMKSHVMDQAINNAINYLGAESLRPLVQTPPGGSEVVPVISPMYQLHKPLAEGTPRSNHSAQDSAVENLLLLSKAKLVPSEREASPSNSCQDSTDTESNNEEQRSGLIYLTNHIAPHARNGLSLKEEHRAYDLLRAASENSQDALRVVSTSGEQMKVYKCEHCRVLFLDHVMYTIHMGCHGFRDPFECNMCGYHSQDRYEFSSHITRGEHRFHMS
T2 sequence (Q96SW2 whole entry): as the sequence (Q96SW2 whole entry) above
T2 sequence (Q16531 whole entry partner): as the sequence (Q16531 whole entry partner) above
T5 sequence (P30291 whole entry): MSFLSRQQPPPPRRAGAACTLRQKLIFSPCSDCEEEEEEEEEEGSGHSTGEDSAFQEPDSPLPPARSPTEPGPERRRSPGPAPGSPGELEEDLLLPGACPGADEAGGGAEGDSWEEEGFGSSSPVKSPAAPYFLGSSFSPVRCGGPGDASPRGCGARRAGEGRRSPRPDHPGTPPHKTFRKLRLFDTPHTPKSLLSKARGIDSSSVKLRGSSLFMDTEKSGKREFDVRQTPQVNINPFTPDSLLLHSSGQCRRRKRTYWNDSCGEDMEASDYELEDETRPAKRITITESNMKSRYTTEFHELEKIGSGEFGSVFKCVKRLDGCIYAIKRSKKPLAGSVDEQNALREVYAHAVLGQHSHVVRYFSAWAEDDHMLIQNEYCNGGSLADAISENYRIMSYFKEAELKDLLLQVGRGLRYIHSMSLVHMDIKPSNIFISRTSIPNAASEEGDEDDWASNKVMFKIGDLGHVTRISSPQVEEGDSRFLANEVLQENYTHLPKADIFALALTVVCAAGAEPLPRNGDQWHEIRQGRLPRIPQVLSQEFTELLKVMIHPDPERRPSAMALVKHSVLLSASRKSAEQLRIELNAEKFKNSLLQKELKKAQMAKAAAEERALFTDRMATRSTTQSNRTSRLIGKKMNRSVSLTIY
T5 sequence (Q96SW2 whole entry): as the sequence (Q96SW2 whole entry) above
T5 sequence (Q16531 whole entry partner): as the sequence (Q16531 whole entry partner) above
T3 sequence (Q9UKS7 whole entry): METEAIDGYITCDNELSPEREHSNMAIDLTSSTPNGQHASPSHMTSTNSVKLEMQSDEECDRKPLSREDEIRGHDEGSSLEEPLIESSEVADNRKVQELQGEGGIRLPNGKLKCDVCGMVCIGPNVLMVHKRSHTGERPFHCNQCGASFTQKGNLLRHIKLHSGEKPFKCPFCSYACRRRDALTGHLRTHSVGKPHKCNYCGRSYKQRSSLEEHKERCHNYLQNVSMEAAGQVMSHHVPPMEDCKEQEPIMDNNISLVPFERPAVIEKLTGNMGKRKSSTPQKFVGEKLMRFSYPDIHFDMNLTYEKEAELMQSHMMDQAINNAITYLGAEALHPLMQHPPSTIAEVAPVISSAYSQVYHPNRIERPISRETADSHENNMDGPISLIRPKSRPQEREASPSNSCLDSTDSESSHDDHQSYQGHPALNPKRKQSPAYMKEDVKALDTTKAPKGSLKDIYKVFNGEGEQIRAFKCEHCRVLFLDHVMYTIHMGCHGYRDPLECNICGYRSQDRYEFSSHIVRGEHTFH
T3 sequence (Q96SW2 whole entry): as the sequence (Q96SW2 whole entry) above
T3 sequence (Q16531 whole entry partner): as the sequence (Q16531 whole entry partner) above
T4 sequence (Q9UKT9 whole entry): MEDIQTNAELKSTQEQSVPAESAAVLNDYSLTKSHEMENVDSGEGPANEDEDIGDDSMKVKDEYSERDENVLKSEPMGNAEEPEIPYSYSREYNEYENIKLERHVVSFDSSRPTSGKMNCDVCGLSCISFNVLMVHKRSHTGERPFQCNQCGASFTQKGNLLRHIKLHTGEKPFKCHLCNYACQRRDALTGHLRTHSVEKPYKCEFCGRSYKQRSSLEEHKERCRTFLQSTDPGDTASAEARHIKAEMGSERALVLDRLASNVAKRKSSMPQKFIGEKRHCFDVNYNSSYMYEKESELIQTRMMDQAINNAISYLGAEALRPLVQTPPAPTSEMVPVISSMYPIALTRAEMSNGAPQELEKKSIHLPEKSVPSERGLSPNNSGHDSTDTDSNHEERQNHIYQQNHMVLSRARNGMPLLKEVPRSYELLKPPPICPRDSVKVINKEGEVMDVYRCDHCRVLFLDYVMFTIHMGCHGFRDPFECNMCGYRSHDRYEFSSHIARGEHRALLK
T4 sequence (Q96SW2 whole entry): as the sequence (Q96SW2 whole entry) above
T4 sequence (Q16531 whole entry partner): as the sequence (Q16531 whole entry partner) above

Row | SMILES | CK1α substrate protein remaining % (CK1α; [2]) | IKZF 1 substrate protein remaining % (IKZF1; [2]) | IKZF2 substrate protein remaining % (IKZF2; [2]) | IKZF3 substrate protein remaining % (IKZF3; [2]) | Wee1 substrate protein remaining % (WEE1; [2]) | GSPT1 substrate protein remaining % (GSPT1; [2]) | inhibition at 0.5 µM [1] | inhibition at 2 µM [1] | CK1α substrate protein remaining % (CK1α; [3]) | IKZF 1 substrate protein remaining % (IKZF1; [3]) | IKZF2 substrate protein remaining % (IKZF2; [3]) | IKZF3 substrate protein remaining % (IKZF3; [3]) | Wee1 substrate protein remaining % (WEE1; [3]) | GSPT1 substrate protein remaining % (GSPT1; [3]) | IC50 ([1]; CRBN binding, HTRF, 3 hours at room temperature, read-out: HTRF IC50)
1 | O=C1CCC(N2Cc3c(CN4CCN(c5ccnc(Br)c5F)CC4)cccc3C2=S)C(=O)N1 (stereo not drawn) [GT-08733, 3-(4-((4-(2-bromo-3-fluoropyridin-4-yl)piperazin-1-yl)methyl)-1-thioxoisoindolin-2-yl)piperidine-2,6-dione] | B (80%< substrate protein remaining %≤ 100%) | B (80%< substrate protein remaining %≤ 100%) | B (80%< substrate protein remaining %≤ 100%) | B (80%< substrate protein remaining %≤ 100%) | A (0% ≤ substrate protein remaining % ≤ 80%) | A (0% ≤ substrate protein remaining % ≤ 80%) | 60 to 80% | 80 to 100% |  |  |  |  |  |  | 
2 | Cc1nc(C2CCN(Cc3ccc4c(c3)CN(C3CCC(=O)NC3=O)C4=S)CC2)c2c3c(sc2n1)CCCC3 (stereo not drawn) [GT-09310, 3-(5-((4-(2-methyl-5,6,7,8-tetrahydrobenzo[4,5]thieno[2,3-d]pyrimidin-4-yl)piperidin-1-yl)methyl)-1-thioxoisoindolin-2-yl)piperidine-2,6-dione] |  |  |  |  |  |  | 53 to 60% | 80 to 100% | B (80%< substrate protein remaining %≤ 100%) | B (80%< substrate protein remaining %≤ 100%) | B (80%< substrate protein remaining %≤ 100%) | A (0% ≤ substrate protein remaining % ≤ 80%) | B (80%< substrate protein remaining %≤ 100%) | A (0% ≤ substrate protein remaining % ≤ 80%) | 
3 | O=C1CCC(N2Cc3cc(CN4CCN(c5nc(N6CCOCC6)nc6ccsc56)CC4)ccc3C2=S)C(=O)N1 (stereo not drawn) [GT-09333, 3-(5-((4-(2-morpholinothieno[3,2-d]pyrimidin-4-yl)piperazin-1-yl)methyl)-1-thioxoisoindolin-2-yl)piperidine-2,6-dione] |  |  |  |  |  |  | 60 to 80% | 80 to 100% | B (80%< substrate protein remaining %≤ 100%) | A (0% ≤ substrate protein remaining % ≤ 80%) | B (80%< substrate protein remaining %≤ 100%) | A (0% ≤ substrate protein remaining % ≤ 80%) | B (80%< substrate protein remaining %≤ 100%) | A (0% ≤ substrate protein remaining % ≤ 80%) | 
4 | Cc1cscc1C1=CCN(Cc2cccc3c2CN(C2CCC(=O)NC2=O)C3=S)CC1 (stereo not drawn) [GT-08308, 3-(4-((4-(4-methylthiophen-3-yl)-3,6-dihydropyridin-1(2H)-yl)methyl)-1-thioxoisoindolin-2-yl)piperidine-2,6-dione] |  |  |  |  |  |  | 53 to 60% | 60 to 80% | B (80%< substrate protein remaining %≤ 100%) | B (80%< substrate protein remaining %≤ 100%) | B (80%< substrate protein remaining %≤ 100%) | B (80%< substrate protein remaining %≤ 100%) | A (0% ≤ substrate protein remaining % ≤ 80%) | B (80%< substrate protein remaining %≤ 100%) | 
5 | O=C1CCC(N2Cc3cc(CN4CCN(C(c5ccc(Cl)cc5)c5ccc(Cl)cc5)CC4)ccc3C2=S)C(=O)N1 (stereo not drawn) [GT-07737, 3-(5-((4-(bis(4-chlorophenyl)methyl)piperazin-1-yl)methyl)-1-thioxoisoindolin-2-yl)piperidine-2,6-dione] | B (80%< substrate protein remaining %≤ 100%) | A (0% ≤ substrate protein remaining % ≤ 80%) | A (0% ≤ substrate protein remaining % ≤ 80%) | A (0% ≤ substrate protein remaining % ≤ 80%) | B (80%< substrate protein remaining %≤ 100%) | A (0% ≤ substrate protein remaining % ≤ 80%) | 30 to 40% | 53 to 60% |  |  |  |  |  |  | 
6 | O=C1CCC(N2Cc3c(CN4CC5CCC4CN5c4cccc(Cl)c4Cl)cccc3C2=S)C(=O)N1 (stereo not drawn) [GT-08469, 3-(4-((5-(2,3-dichlorophenyl)-2,5-diazabicyclo[2.2.2]octan-2-yl)methyl)-1-thioxoisoindolin-2-yl)piperidine-2,6-dione] | B (80%< substrate protein remaining %≤ 100%) | B (80%< substrate protein remaining %≤ 100%) | B (80%< substrate protein remaining %≤ 100%) | B (80%< substrate protein remaining %≤ 100%) | B (80%< substrate protein remaining %≤ 100%) | A (0% ≤ substrate protein remaining % ≤ 80%) | 40 to 53% | 60 to 80% |  |  |  |  |  |  | 
7 | O=C1CCC(N2Cc3ccc(CN4CCN(c5cccc(Cl)c5Cl)CC4)cc3C2=S)C(=O)N1 (stereo not drawn) [GT-05033, 3-(6-((4-(2,3-dichlorophenyl)piperazin-1-yl)methyl)-1-thioxoisoindolin-2-yl)piperidine-2,6-dione] |  |  |  |  |  |  |  |  | B (80%< substrate protein remaining %≤ 100%) | B (80%< substrate protein remaining %≤ 100%) | B (80%< substrate protein remaining %≤ 100%) | A (0% ≤ substrate protein remaining % ≤ 80%) | B (80%< substrate protein remaining %≤ 100%) | A (0% ≤ substrate protein remaining % ≤ 80%) | 100 to 500 nM
8 | CC1(C)CC(c2ccc(Cl)cc2)=C(CN2CCN(Cc3ccc4c(c3)CN(C3CCC(=O)NC3=O)C4=S)CC2)CO1 (stereo not drawn) [GT-08167, 3-(5-((4-((4-(4-chlorophenyl)-6,6-dimethyl-5,6-dihydro-2H-pyran-3-yl)methyl)piperazin-1-yl)methyl)-1-thioxoisoindolin-2-yl)piperidine-2,6-dione] |  |  |  |  |  |  | 40 to 53% | 80 to 100% | B (80%< substrate protein remaining %≤ 100%) | B (80%< substrate protein remaining %≤ 100%) | A (0% ≤ substrate protein remaining % ≤ 80%) | A (0% ≤ substrate protein remaining % ≤ 80%) | A (0% ≤ substrate protein remaining % ≤ 80%) | A (0% ≤ substrate protein remaining % ≤ 80%) | 
9 | O=C1CCC(N2Cc3c(CN4CCN(c5nccc(F)c5F)CC4)cccc3C2=S)C(=O)N1 (stereo not drawn) [GT-08728, 3-(4-((4-(3,4-difluoropyridin-2-yl)piperazin-1-yl)methyl)-1-thioxoisoindolin-2-yl)piperidine-2,6-dione] | B (80%< substrate protein remaining %≤ 100%) | B (80%< substrate protein remaining %≤ 100%) | B (80%< substrate protein remaining %≤ 100%) | B (80%< substrate protein remaining %≤ 100%) | A (0% ≤ substrate protein remaining % ≤ 80%) | B (80%< substrate protein remaining %≤ 100%) | 53 to 60% | 80 to 100% |  |  |  |  |  |  | 
10 | O=C1CCC(N2Cc3c(CN4CCN(c5cccc(C(F)(F)F)n5)CC4)cccc3C2=S)C(=O)N1 (stereo not drawn) [GT-08701, 3-(1-thioxo-4-((4-(6-(trifluoromethyl)pyridin-2-yl)piperazin-1-yl)methyl)isoindolin-2-yl)piperidine-2,6-dione] | B (80%< substrate protein remaining %≤ 100%) | B (80%< substrate protein remaining %≤ 100%) | B (80%< substrate protein remaining %≤ 100%) | B (80%< substrate protein remaining %≤ 100%) | A (0% ≤ substrate protein remaining % ≤ 80%) | B (80%< substrate protein remaining %≤ 100%) | 40 to 53% | 80 to 100% |  |  |  |  |  |  | 
11 | O=C1CCC(N2Cc3c(CN4CCN(c5nc(N6CCOCC6)c6sccc6n5)CC4)cccc3C2=S)C(=O)N1 (stereo not drawn) [GT-09033, 3-(4-((4-(4-morpholinothieno[3,2-d]pyrimidin-2-yl)piperazin-1-yl)methyl)-1-thioxoisoindolin-2-yl)piperidine-2,6-dione] |  |  |  |  |  |  | 60 to 80% | 80 to 100% | B (80%< substrate protein remaining %≤ 100%) | B (80%< substrate protein remaining %≤ 100%) | B (80%< substrate protein remaining %≤ 100%) | B (80%< substrate protein remaining %≤ 100%) | A (0% ≤ substrate protein remaining % ≤ 80%) | B (80%< substrate protein remaining %≤ 100%) | 
